For orientation: EC50 means the concentration giving half of the maximal effect.

The target of this test is T1, human mGlu5a receptor (Homo sapiens, UniProt P41594).
T1 construct: expressed in transfected cells
As to the kind of experiment: Intracellular Ca2+ mobilization assay. It is filed as cell-based. As to conditions: for Emax: HEK293, read-out: Efficacy (%); for EC50: HEK-293 cells stably transfected with human mGlu5a receptor, pre-incubation 10-30 min with test compound, then L-glutamate at EC20 (typically around 80 μM), Fluo-4AM fluorescence, read-out: EC50 (nM) mGluR5 PAM. On the procedure: A monoclonal HEK-293 cell line stably transfected with a cDNA encoding for the human mGlu5a receptor was generated; for the work with mGlu5 Positive Allosteric Modulators (PAMs), a cell line with low receptor expression levels and low constitutive receptor activity was selected to allow the differentiation of agonistic versus PAM activity. Cells were cultured according to standard protocols (Freshney, 2000) in Dulbecco's Modified Eagle Medium with high glucose supplemented with 1 mM glutamine, 10% (vol/vol) heat-inactivated bovine calf serum, Penicillin/Streptomycin, 50 μg/ml hygromycin and 15 μg/ml blasticidin (all cell culture reagents and antibiotics from Invitrogen, Basel, Switzerland).
About 24 hrs before an experiment, 5×10^4 cells/well were seeded in poly-D-lysine coated, black/clear-bottomed 96-well plates. The cells were loaded with 2.5 μM Fluo-4AM in loading buffer (1×HBSS, 20 mM HEPES) for 1 hr at 37° C. and washed five times with loading buffer. The cells were transferred into a Functional Drug Screening System 7000 (Hamamatsu, Paris, France), and 11 half logarithmic serial dilutions of test compound at 37° C. were added and the cells were incubated for 10-30 min. with on-line recording of fluorescence. Following this pre-incubation step, the agonist L-glutamate was added to the cells at a concentration corresponding to EC20 (typically around 80 μM) with on-line recording of fluorescence; in order to account for day-to-day variations in the responsiveness of cells, the EC20 of glutamate was determined immediately ahead of each experiment by recording of a full dose-response curve of glutamate.
Responses were measured as peak increase in fluorescence minus basal (i.e. fluorescence without addition of L-glutamate), normalized to the maximal stimulatory effect obtained with saturating concentrations of L-glutamate. Graphs were plotted with the % maximal stimulatory using XLfit, a curve fitting program that iteratively plots the data using Levenburg Marquardt algorithm. The single site competition analysis equation used was y=A+((B−A)/(1+((x/C)D))), where y is the % maximal stimulatory effect, A is the minimum y, B is the maximum y, C is the EC50, x is the log 10 of the concentration of the competing compound and D is the slope of the curve (the Hill Coefficient). From these curves the EC50 (concentration at which half maximal stimulation was achieved), the Hill coefficient as well as the maximal response in % of the maximal stimulatory effect obtained with saturating concentrations of L-glutamate were calculated.
A depression of the signal observed after addition of the EC20 concentration of L-glutamate was indicative of an inhibitory activity of the test compound.

Where [1] appears, read: maximal response in % of the maximal stimulatory effect obtained with saturating concentrations of L-glutamate, HEK-293 human mGlu5a cells, L-glutamate at EC20.

T1 sequence (P41594 21-1180 isoform P41594-2 limits assumed): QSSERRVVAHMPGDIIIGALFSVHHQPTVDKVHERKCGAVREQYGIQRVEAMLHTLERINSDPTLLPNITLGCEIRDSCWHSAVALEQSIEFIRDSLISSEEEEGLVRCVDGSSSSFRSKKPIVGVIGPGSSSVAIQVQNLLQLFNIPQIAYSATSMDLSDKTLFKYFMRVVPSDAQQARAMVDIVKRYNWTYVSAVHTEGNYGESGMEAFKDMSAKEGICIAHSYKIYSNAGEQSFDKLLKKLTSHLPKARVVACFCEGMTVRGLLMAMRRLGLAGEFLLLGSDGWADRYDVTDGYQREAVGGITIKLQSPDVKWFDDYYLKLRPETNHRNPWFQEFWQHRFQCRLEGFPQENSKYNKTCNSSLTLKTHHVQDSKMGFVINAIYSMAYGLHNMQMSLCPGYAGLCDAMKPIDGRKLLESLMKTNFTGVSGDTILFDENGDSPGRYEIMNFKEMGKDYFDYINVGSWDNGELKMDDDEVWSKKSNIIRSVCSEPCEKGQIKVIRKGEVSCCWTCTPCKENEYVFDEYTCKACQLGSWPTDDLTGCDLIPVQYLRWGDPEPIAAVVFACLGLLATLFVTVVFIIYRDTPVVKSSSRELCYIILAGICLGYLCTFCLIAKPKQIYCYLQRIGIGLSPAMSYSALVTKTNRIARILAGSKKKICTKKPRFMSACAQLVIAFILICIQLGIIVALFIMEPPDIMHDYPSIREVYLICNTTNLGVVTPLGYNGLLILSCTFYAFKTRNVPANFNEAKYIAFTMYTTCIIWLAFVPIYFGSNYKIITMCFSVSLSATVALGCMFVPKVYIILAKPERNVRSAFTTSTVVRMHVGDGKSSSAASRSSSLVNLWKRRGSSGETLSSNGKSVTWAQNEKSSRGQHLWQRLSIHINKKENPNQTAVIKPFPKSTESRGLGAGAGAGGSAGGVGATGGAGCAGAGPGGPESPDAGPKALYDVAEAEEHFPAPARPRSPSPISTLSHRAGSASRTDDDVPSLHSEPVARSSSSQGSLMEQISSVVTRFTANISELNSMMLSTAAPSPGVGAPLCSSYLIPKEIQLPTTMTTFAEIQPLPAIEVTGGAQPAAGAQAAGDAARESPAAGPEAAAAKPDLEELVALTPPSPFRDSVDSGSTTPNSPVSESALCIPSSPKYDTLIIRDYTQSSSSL

With `COC1CCCC(OC)C1Nc1ncc(C#Cc2ccccc2)cn1` (mixture of isomers) [Example 5, (2,6-dimethoxy-cyclohexyl)-(5-phenylethynyl-pyrimidin-2-yl)-amine], the EC50 amounted to 345 nM. For the same compound, the Emax under setting [1] came to 105%.

Regarding `OC1CCCCC1Nc1ncc(C#Cc2ccccc2)cn1` (mixture of isomers) [Example 10, 2-(5-phenylethynyl-pyrimidin-2-ylamino)-cyclohexanol], the EC50 came out at 340 nM. For the same compound, the Emax under setting [1] worked out at 72%.

Turning to `OC1CCC(Nc2ncc(C#Cc3ccccc3)cn2)C1` (mixture of isomers) [Example 11, 3-(5-phenylethynyl-pyrimidin-2-ylamino)-cyclopentanol], the EC50 was determined as 322 nM. Also, the Emax under setting [1] is 78%.

On to `OC1CCCC1Nc1ncc(C#Cc2ccccc2)cn1` (mixture of isomers) [Example 12, 2-(5-phenylethynyl-pyrimidin-2-ylamino)-cyclopentanol], for which the EC50 stood at 560 nM. Under setting [1], the Emax was determined as 80%.

As for `CC1(C)CC(Nc2ncc(C#Cc3ccccc3)cn2)CCO1` (racemic) [Example 3, rac-(2,2-Dimethyl-tetrahydro-pyran-4-yl)-(5-phenylethynyl-pyrimidin-2-yl)-amine], the EC50 was found to be 172 nM. In addition, the Emax under setting [1] was found to be 89%.

Regarding `C(#Cc1cnc(N[C@H]2C[C@@H]3CC[C@H]2O3)nc1)c1ccccc1` (racemic) [Example 4, rac-7-Oxa-bicyclo[2.2.1]hept-2-yl-(5-phenylethynyl-pyrimidin-2-yl)-amine], the EC50 came out at 195 nM. Moreover, the Emax under setting [1] is 113%.

As for `CC1(C)CC(Nc2ncc(C#Cc3ccccc3)cn2)CCC1O` (racemic) [Example 16, 2,2-Dimethyl-4-(5-phenylethynyl-pyrimidin-2-ylamino)-cyclohexanol], the EC50 was 324 nM. Also, the Emax under setting [1] was determined as 113%.

With `OC1CCC(Oc2ncc(C#Cc3ccccc3)cn2)CC1` (racemic) [Example 22, rac-4-(5-Phenylethynyl-pyrimidin-2-yloxy)-cyclohexanol], the EC50 worked out at 168 nM. The Emax under setting [1] is 121%.

As to `OC1CCC(Oc2ncc(C#Cc3ccccc3)cc2F)CC1` (racemic) [Example 27, rac-4-(3-Fluoro-5-phenylethynyl-pyridin-2-yloxy)-cyclohexanol], the EC50 came out at 200 nM. Further, the Emax under setting [1] turned out to be 90%.

As for `CC1CCN(Cc2ccc(C#Cc3ccccc3)cn2)C1=O` (racemic) [Example 39, rac-3-Methyl-1-(5-phenylethynyl-pyridin-2-ylmethyl)-pyrrolidin-2-one], the 50% effective concentration (EC50) came out at 93 nM. Besides, the Emax under setting [1] was 120%.

As for `CC(c1ccc(C#Cc2ccccc2)cn1)N1CCOC1=O` (racemic) [Example 41, rac-3-[1-(5-Phenylethynyl-pyridin-2-yl)-ethyl]-oxazolidin-2-one], the EC50 came to 94 nM. Moreover, the Emax under setting [1] worked out at 59%.

`CC1(C)CC(Nc2ncc(C#Cc3ccccc3)cn2)CCC1O` (single isomer, unassigned) [Example 17, (1S,4S or 1R,4R)-2,2-Dimethyl-4-(5-phenylethynyl-pyrimidin-2-ylamino)-cyclohexanol]: the EC50 was 94 nM. Also, the “Efficacy (%)” value under setting [1] came out at 93%.

For the compound `C(#Cc1cnc(NC2CCCC2)nc1)c1ccccc1` [Example 1, Cyclopentyl-(5-phenylethynyl-pyrimidin-2-yl)-amine], the EC50 amounted to 26 nM. For the same compound, the Emax under setting [1] is 40%.

`C(#Cc1cnc(NC2CCOCC2)nc1)c1ccccc1` [Example 2, (5-Phenylethynyl-pyrimidin-2-yl)-(tetrahydro-pyran-4-yl)-amine]: the EC50 was 65 nM. The Emax under setting [1] was 46%.

With `OC[C@H]1CC[C@H](Nc2ncc(C#Cc3ccccc3)cn2)CC1` [Example 6, trans-[4-(5-Phenylethynyl-pyrimidin-2-ylamino)-cyclohexyl]-methanol], the EC50 turned out to be 844 nM. For the same compound, under setting [1], the Emax amounted to 147%.

As for `O[C@H]1CC[C@H](Nc2ncc(C#Cc3ccccc3)cn2)CC1` [Example 7, trans-4-(5-Phenylethynyl-pyrimidin-2-ylamino)-cyclohexanol], the EC50 was found to be 179 nM. Besides, the Emax under setting [1] is 100%.

On to `C(#Cc1ccc(NC2CCCC2)nc1)c1ccccc1` [Example 13, Cyclopentyl-(5-phenylethynyl-pyridin-2-yl)-amine], for which the EC50 was found to be 43 nM. In addition, under setting [1], the Emax was 43%.

`C(#Cc1ccc(NC2CCOCC2)nc1)c1ccccc1` [Example 14, (5-Phenylethynyl-pyridin-2-yl)-(tetrahydro-pyran-4-yl)-amine]: the EC50 was 110 nM. Also, the Emax under setting [1] came out at 59%.

Turning to `C(#Cc1cnc(NC2CCCCC2)nc1)c1ccccc1` [Example 15, Cyclohexyl-(5-phenylethynyl-pyrimidin-2-yl)-amine], the half-maximal effective concentration (EC50) is 52 nM. Moreover, under setting [1], the Emax was 112%.

`O[C@H]1CC[C@H](Nc2ncc(C#Cc3ccccc3)cc2F)CC1` [Example 18, trans-4-(3-Fluoro-5-phenylethynyl-pyridin-2-ylamino)-cyclohexanol]: the EC50 amounted to 192 nM. For the same compound, the Emax under setting [1] is 116%.

Turning to `C[C@H]1CC[C@H](Nc2ncc(C#Cc3ccccc3)cn2)CC1` [Example 19, trans-(4-Methyl-cyclohexyl)-(5-phenylethynyl-pyrimidin-2-yl)-amine], the EC50 turned out to be 75 nM. Besides, under setting [1], the Emax amounted to 55%.

Regarding `C(#Cc1cnc(NCC2CCOCC2)nc1)c1ccccc1` [Example 20, (5-Phenylethynyl-pyrimidin-2-yl)-(tetrahydro-pyran-4-ylmethyl)-amine], the EC50 is 206 nM. For the same compound, the Emax under setting [1] is 80%.

`CC1(CNc2ncc(C#Cc3ccccc3)cn2)COC1` [Example 21, (3-Methyl-oxetan-3-ylmethyl)-(5-phenylethynyl-pyrimidin-2-yl)-amine]: the EC50 turned out to be 78 nM. For the same compound, the Emax under setting [1] came out at 45%.

For `O[C@H]1CC[C@H](Oc2ncc(C#Cc3ccccc3)cn2)CC1` [Example 23, trans-4-(5-Phenylethynyl-pyrimidin-2-yloxy)-cyclohexanol], the EC50 came to 110 nM. The Emax under setting [1] stood at 94%.

For `CC1(COc2ncc(C#Cc3ccccc3)cn2)COC1` [Example 24, 2-(3-Methyl-oxetan-3-ylmethoxy)-5-phenylethynyl-pyrimidine], the EC50 worked out at 101 nM. Under setting [1], the Emax was 88%.

Take `O[C@H]1C[C@H](COc2ncc(C#Cc3ccccc3)cn2)C1` [Example 25, trans-3-(5-Phenylethynyl-pyrimidin-2-yloxymethyl)-cyclobutanol]: the EC50 turned out to be 291 nM. In addition, the Emax under setting [1] was 133%.

On to `OC[C@H]1C[C@H](Oc2ncc(C#Cc3ccccc3)cn2)C1` [Example 26, trans-[3-(5-Phenylethynyl-pyrimidin-2-yloxy)-cyclobutyl]-methanol], for which the EC50 is 99 nM. Also, under setting [1], the Emax was 117%.

Take `C(#Cc1ccc(OC2CCCCC2)nc1)c1ccccc1` [Example 28, 2-Cyclohexyloxy-5-phenylethynyl-pyridine]: the EC50 is 45 nM. The Emax under setting [1] was determined as 61%.

As for `CC1(COc2ncc(C#Cc3ccccc3)cc2F)COC1` [Example 29, 3-Fluoro-2-(3-methyl-oxetan-3-ylmethoxy)-5-phenylethynyl-pyridine], the EC50 worked out at 135 nM. Moreover, the Emax under setting [1] worked out at 71%.

Take `O=C1COCCN1Cc1ccc(C#Cc2ccccc2)cn1` [Example 30, 4-(5-Phenylethynyl-pyridin-2-ylmethyl)-morpholin-3-one]: the EC50 came out at 83 nM. Besides, under setting [1], the Emax was 121%.

`O=C1OCCN1Cc1ccc(C#Cc2ccccc2)cn1` [Example 31, 3-(5-Phenylethynyl-pyridin-2-ylmethyl)-oxazolidin-2-one]: the EC50 is 56 nM. Besides, the Emax under setting [1] was 122%.

`O=C1CCCCN1Cc1ccc(C#Cc2ccccc2)cn1` [Example 32, 1-(5-Phenylethynyl-pyridin-2-ylmethyl)-piperidin-2-one]: the EC50 was found to be 268 nM. Also, the Emax under setting [1] was found to be 145%.

Source of the values: patent publication US8716316B2 (Hoffmann-La Roche Inc., priority 2009, dated 2014).
